Experimental data reported in patent publication US4670421A, “Antiatherosclerotic silanes” (American Cyanamid Company, priority 1982, dated 1987).

Tests used:
[1] = Serum hypolipidemic activity in vivo: lowering of serum cholesterol and triglycerides in rats; set-up: species or system male rats COBS, CD, SD strain; conditions: oral, 0.1% by weight in diet, 5 days, vs control animals
Description: (§1) The compounds of the present invention were assayed for two types of biological activity related to their potential use as antiatherosclerotic agents. Compounds were tested in vitro for their ability to inhibit the enzymes fatty acyl CoA:cholesterol acyl transferase (ACAT) and in vivo for serum hypolipidemic activity as measured by their ability to inhibit lipid absorption in rats. The compounds were tested for their ability to inhibit ACAT according to the following procedure:
The compounds were also tested for their ability to lower lipid levels in mammals. The compounds were administered orally admixed with diet (0.1% by weight) to groups of four male rats COBS, CD, SD strain from Charles River Breeding Laboratories, Inc, Wilmington, Mass. A control group of eight rats was maintained on the diet alone; test groups were maintained on the diet plus 0.1% of test compounds by weight. After 5 days treatment, serum cholesterol and triglyceride concentrations were determined by direct enzymatic procedures using a Centrifichem® System 400 autoanalyzer (Union Carbide Co.). Cholesterol concentrations were determined by the combined cholesterol esterase-cholesterol oxidase procedure of Roelschlau et. al., Zeit. Klin. Chem. Lkin. Biochem., 12, 226 (1974). Triglycerides were determined by the combined method of lipase catalyzed hydrolysis of triglycerides to glycerol and free fatty acids [Bucolo, G. and David, H., Clin. Chem. 19, 476 (1973)] and Wahlefeld, A. W., in "Methods of Enzymatic Analysis", Vol. 4, Bergmeyer, H. U., Editor, Academic Press, New York, N.Y. (1974), pp. 1831-1835 and the enzymatic oxidation of the glycerol which leads to the production of colored formazan [Stavropoulos, W. S. and Crouch, R. D., Clin. Chem., 20, No. 7, 857 (1974)]. […] Compounds which produce statistically significant lowering of either sterol or triglycerides are considered to be active.

[2] = biological target: T1, fatty acyl CoA:cholesterol acyl transferase (ACAT) (Rattus norvegicus, UniProt O70536); assay: Inhibition of fatty acyl CoA:cholesterol acyl transferase (ACAT) in vitro (rat adrenal supernatant, oleoyl CoA-14C); format: biochemical; conditions: final concentration 5.2 μg./ml., 37° C.; for inhibition at 5.2 µg/mL: pH 7.4, rat adrenal supernatant; for % Inhibition (ACAT): rat adrenal supernatant, pH 7.4
T1 construct: Rat adrenals were homogenized in 0.2M monobasic potassium phosphate buffer; from tissue; host or cells: rat adrenals, 1000 x g supernatant of the homogenate containing the microsomal fraction
T1 sequence (O70536 1-545): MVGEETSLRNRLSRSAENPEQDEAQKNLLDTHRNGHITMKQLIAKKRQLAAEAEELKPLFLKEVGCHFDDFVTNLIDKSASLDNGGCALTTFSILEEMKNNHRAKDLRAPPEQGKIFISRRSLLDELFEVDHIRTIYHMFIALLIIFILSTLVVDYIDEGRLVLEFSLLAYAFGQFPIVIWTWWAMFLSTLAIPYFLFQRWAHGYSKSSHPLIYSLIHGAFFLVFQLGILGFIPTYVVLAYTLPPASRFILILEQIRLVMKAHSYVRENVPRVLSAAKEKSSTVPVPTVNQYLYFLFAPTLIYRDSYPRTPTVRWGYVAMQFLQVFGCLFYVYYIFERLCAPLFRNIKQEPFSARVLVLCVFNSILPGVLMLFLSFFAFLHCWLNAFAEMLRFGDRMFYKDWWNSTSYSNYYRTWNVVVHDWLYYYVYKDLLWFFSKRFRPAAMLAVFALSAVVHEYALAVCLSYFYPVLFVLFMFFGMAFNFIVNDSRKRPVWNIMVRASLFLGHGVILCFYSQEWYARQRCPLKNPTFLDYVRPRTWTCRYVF
Description: as §1
Rat adrenals were homogenized in 0.2M monobasic potassium phosphate buffer, pH 7.4, and centrifuged at 1000 times gravity for 15 minutes at 5° C. The supernatant, containing the microsomal fraction, served as the source of the cholesterol-esterifying enzyme, fatty acyl CoA:cholesterol acyl transferase (ACAT). A mixture comprising 50 parts of adrenal supernatant, 10 parts of albumin (BSA) (50 mg./ml.), 3 parts of test compound (final concentration 5.2 μg./ml.) and 500 parts of buffer was preincubated at 37° C. for 10 minutes. After treatment with 20 parts of oleoyl CoA(^14 C-0.4 μCi) the mixture was incubated at 37° C. for 10 minutes. A control mixture, omitting the test compound, was prepared and treated in the same manner. The lipids from the incubation mixture were extracted into an organic solvent and separated by thin-layer chromatography. The cholesteryl ester fraction was counted in a scintillation counter. This procedure is a modification of that described by Hashimoto, et al., Life Scie., 12 (Part II), 1-12 (1973).

| SMILES | % Lowering of Serum Sterol [1] | % Lowering of Serum Triglycerides [1] | inhibition at 5.2 µg/mL [2] | % Inhibition (ACAT) [2] |
| --- | --- | --- | --- | --- |
| C[Si](C)(C)CCCNc1ccc(C(=O)O)cc1 [4-[3-(Trimethylsilyl)propylamino]benzoic acid] | 18% | 53% | 12% | – |
| C[Si](C)(C)CCCCCCCCCCCNc1ccc(C(=O)O)cc1 [4-[11-(Trimethylsilyl)undecylamino]benzoic acid] | 56% | 75% | 57% | – |
| C[Si](C)(C)CCCCCCCCCCCCCCNc1ccc(C(=O)O)cc1 [4-[14-(Trimethylsilyl)tetradecylamino]benzoic acid] | 60% | 70% | 60% | – |
| CCOC(=O)c1ccc(NCCC[Si](C)(C)C)cc1 [Ethyl 4-[3-(trimethylsilyl)propylamino]benzoate] | 23% | 46% | 59% | – |
| CCOC(=O)c1ccc(NCCCCCCCCCCC[Si](C)(C)C)cc1 [Ethyl 4-[11-(trimethylsilyl)undecylamino]benzoate] | 43% | 22% | 17% | – |
| CCOC(=O)c1ccc(NCCCCCCCCCCCCCC[Si](C)(C)C)cc1 [Ethyl 4-[14-(trimethylsilyl)tetradecylamino]benzoate] | 47% | 38% | 50% | – |
| C[Si](C)(C)CCCNc1ccc(C(=O)[O-])cc1.[Na+] [Sodium 4-[3-(trimethylsilyl)propylamino]benzoate] | 36% | 23% | – | 23% |
| C[Si](C)(C)CCCCCCCCCCCNc1ccc(C(=O)[O-])cc1.[Na+] [Sodium 4-[11-(trimethylsilyl)undecylamino]benzoate] | 52% | 54% | – | 56% |
| C[Si](C)(C)CCCCCCCCCCCCCCNc1ccc(C(=O)[O-])cc1.[Na+] [Sodium 4-[14-(trimethylsilyl)tetradecylamino]benzoate] | 61% | 78% | – | 62% |
